For 8 compounds, IC50 results are on record in patent US12384808B2, “Modulators of TNF-α activity” (Forward Therapeutics, Inc., priority 2022, dated 2025).

In the experiment the target is TNFα (Homo sapiens, UniProt P01375). Put plainly: TNFα Induced HEK Blue Cellular Assay. It is filed as cell-based. As to conditions: HEK Blue TNFα reporter cells, TNFα 100 pg/ml, 24 hrs at 37° C., secreted alkaline phosphatase (QUANTI-Blue) read at 620 nm; read-out: IC50 value. The gist of the method: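 IC50 fitted with a 4-parameter logistic model from % inhibition, normalised to DMSO controls with and without stimulation. Readout: QUANTI-Blue SEAP at 620 nm after 24 h, 37 °C exposure to TNFα (100 pg/ml final) and test compound at […]–0.5 nM final.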
Sequence of TNFα (P01375 77-233 limits assumed): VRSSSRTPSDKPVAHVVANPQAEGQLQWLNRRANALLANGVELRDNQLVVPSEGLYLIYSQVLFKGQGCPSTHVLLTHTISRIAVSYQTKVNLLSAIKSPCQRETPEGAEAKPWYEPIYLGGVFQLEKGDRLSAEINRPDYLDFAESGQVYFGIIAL
Usually IC50 stands for the concentration needed to halve the response being measured. `CN1C(=O)c2cccc(OC(F)F)c2[C@H]2C[C@@H]1c1nc3cc(F)c(-c4ccc(P(C)(C)=O)c(F)c4F)cc3n12` [Example 55, (1R,11R)-18-(difluoromethoxy)-5-[4-(dimethylphosphoryl)-2,3-difluorophenyl]-6-fluoro-12-methyl-2,9,12-triazapentacyclo[9.8.1.0^{2,10}.0^{3,8}.0^{14,19}]icosa-3(8),4,6,9,14(19),15,17-heptaen-13-one]: the IC50 is under 100 nM.
The figure for `CN1C(=O)c2cccc(OC(F)F)c2[C@H]2C[C@@H]1c1nc3ccc(-c4cc(F)c(P(C)(C)=O)cc4F)cc3n12` [Example 56, (1R,11R)-18-(difluoromethoxy)-5-[4-(dimethylphosphoryl)-2,5-difluorophenyl]-12-methyl-2,9,12-triazapentacyclo[9.8.1.0^{2,10}.0^{3,8}.0^{14,19}]icosa-3(8),4,6,9,14(19),15,17-heptaen-13-one] is under 100 nM; for `CN1C(=O)c2cccc(OC(F)F)c2[C@H]2C[C@@H]1c1nc3cc(F)c(-c4ccc(P(C)(C)=O)c(F)c4)cc3n12` [Example 57, (1R,11R)-18-(difluoromethoxy)-5-[4-(dimethylphosphoryl)-3-fluorophenyl]-6-fluoro-12-methyl-2,9,12-triazapentacyclo[9.8.1.0^{2,10}.0^{3,8}.0^{14,19}]icosa-3(8),4,6,9,14(19),15,17-heptaen-13-one] it is under 100 nM; for `CN1C(=O)c2cccc(OC(F)F)c2[C@H]2C[C@@H]1c1nc3cc(F)c(-c4ccc(P(C)(C)=O)cc4F)cc3n12` [Example 58, (1R,11R)-18-(difluoromethoxy)-5-[4-(dimethylphosphoryl)-2-fluorophenyl]-6-fluoro-12-methyl-2,9,12-triazapentacyclo[9.8.1.0^{2,10}.0^{3,8}.0^{14,19}]icosa-3(8),4,6,9,14(19),15,17-heptaen-13-one] it is under 100 nM.
For the compound `[2H]C([2H])([2H])N1C(=O)c2cccc(OC(F)F)c2[C@H]2C[C@@H]1c1nc3cc(F)c(-c4ccc(P(C)(C)=O)c(F)c4)cc3n12` [Example 59, (7R,14R)-1-(difluoromethoxy)-11-(4-(dimethylphosphoryl)-3-fluorophenyl)-10-fluoro-6-(methyl-d3)-6,7-dihydro-7,14-methanobenzo[f]benzo[4,5]imidazo[1,2-a][1,4]diazocin-5(14H)-one], the IC50 is under 100 nM.
The figure for `[2H]C([2H])([2H])N1C(=O)c2cccc(OC(F)F)c2[C@H]2C[C@@H]1c1nc3ccc(-c4cc(F)c(P(C)(C)=O)c(F)c4)cc3n12` [Example 60, (7R,14R)-1-(difluoromethoxy)-11-(4-(dimethylphosphoryl)-3,5-difluorophenyl)-6-(methyl-d3)-6,7-dihydro-7,14-methanobenzo[f]benzo[4,5]imidazo[1,2-a][1,4]diazocin-5(14H)-one] is under 100 nM.
The same measure for `[2H]C([2H])([2H])N1C(=O)c2cccc(OC(F)F)c2[C@H]2C[C@@H]1c1nc3cc(F)c(-c4ccc(P(C)(C)=O)cc4F)cc3n12` [Example 61, (7R,14R)-1-(difluoromethoxy)-11-(4-(dimethylphosphoryl)-2-fluorophenyl)-10-fluoro-6-(methyl-d3)-6,7-dihydro-7,14-methanobenzo[f]benzo[4,5]imidazo[1,2-a][1,4]diazocin-5(14H)-one]: under 100 nM; for `CN1C(=O)c2cccc(OC(F)F)c2[C@H]2C[C@@H]1c1nc3ccc(-c4c(F)cc(P(C)(C)=O)cc4F)cc3n12` [Example 62, (1R,11R)-18-(difluoromethoxy)-5-[4-(dimethylphosphoryl)-2,6-difluorophenyl]-12-methyl-2,9,12-triazapentacyclo[9.8.1.0^{2,10}.0^{3,8}.0^{14,19}]icosa-3(8),4,6,9,14(19),15,17-heptaen-13-one]: under 100 nM.
